Assay results from ChEMBL document CHEMBL4184249, “Structural development of tetrachlorophthalimides as liver X receptor β (LXRβ)-selective agonists with improved aqueous solubility” (Bioorg Med Chem Lett, 2018).
≈ marks a conversion by molar mass, not a printed value. Calls of active or inactive are those of the source. No cut-off for these calls is given here.

Experiments:
[1] = target: T1, Oxysterols receptor LXR-beta (Homo sapiens) (UniProt P55055); assay: Agonist activity at human LXRbeta expressed in HEK293 cells co-expressing CMX-beta-galactosidase incubated for 16 hrs by luciferase reporter gene assay relative to T0901317; type: cell-based
T1 sequence (whole entry): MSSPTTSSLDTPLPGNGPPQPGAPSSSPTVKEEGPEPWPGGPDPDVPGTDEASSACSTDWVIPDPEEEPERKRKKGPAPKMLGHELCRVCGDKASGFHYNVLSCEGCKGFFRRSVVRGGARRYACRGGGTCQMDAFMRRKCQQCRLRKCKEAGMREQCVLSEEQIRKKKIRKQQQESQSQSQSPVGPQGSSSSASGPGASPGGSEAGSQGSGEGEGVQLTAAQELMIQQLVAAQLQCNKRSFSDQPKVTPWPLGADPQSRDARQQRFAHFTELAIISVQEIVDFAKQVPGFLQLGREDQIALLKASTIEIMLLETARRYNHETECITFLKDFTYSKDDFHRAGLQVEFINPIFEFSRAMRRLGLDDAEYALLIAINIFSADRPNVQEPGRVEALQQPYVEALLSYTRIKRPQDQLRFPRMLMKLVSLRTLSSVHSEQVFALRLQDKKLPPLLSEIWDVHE

[2] = target: T2, Oxysterols receptor LXR-beta (Homo sapiens, UniProt P55055); assay: Agonist activity at human LXRbeta expressed in HEK293 cells co-expressing CMX-beta-galactosidase incubated for 16 hrs by luciferase reporter gene assay; type: cell-based
T2 sequence (P55055 whole entry): T1 sequence (whole entry)

[3] = target: T3, Oxysterols receptor LXR-alpha (Homo sapiens) (UniProt Q13133); assay: Agonist activity at human LXRalpha expressed in HEK293 cells co-expressing CMX-beta-galactosidase at 30 uM incubated for 16 hrs by luciferase reporter gene assay; type: cell-based
T3 sequence (whole entry): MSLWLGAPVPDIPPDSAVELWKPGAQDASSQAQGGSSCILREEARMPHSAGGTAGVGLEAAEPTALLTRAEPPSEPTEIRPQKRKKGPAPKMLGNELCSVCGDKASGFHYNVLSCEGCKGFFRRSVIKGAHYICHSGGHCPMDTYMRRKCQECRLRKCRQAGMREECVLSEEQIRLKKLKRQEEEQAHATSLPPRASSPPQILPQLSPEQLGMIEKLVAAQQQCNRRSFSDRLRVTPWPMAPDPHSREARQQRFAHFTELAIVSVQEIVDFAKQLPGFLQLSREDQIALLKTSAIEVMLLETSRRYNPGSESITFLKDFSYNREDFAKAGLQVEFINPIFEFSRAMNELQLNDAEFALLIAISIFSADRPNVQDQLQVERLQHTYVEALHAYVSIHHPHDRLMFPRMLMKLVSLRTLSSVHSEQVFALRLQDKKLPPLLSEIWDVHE

[4] = target: T1, Oxysterols receptor LXR-beta (Homo sapiens); assay: Agonist activity at human LXRbeta expressed in HEK293 cells co-expressing CMX-beta-galactosidase at 30 uM incubated for 16 hrs by luciferase reporter gene assay; type: cell-based
[5] = target: T4, Oxysterols receptor LXR-alpha (Mus musculus) (UniProt Q9Z0Y9); assay: Agonist activity at mouse LXRalpha expressed in HEK293 cells co-expressing CMX-beta-galactosidase at 30 uM incubated for 16 hrs by luciferase reporter gene assay; type: cell-based
T4 sequence (whole entry): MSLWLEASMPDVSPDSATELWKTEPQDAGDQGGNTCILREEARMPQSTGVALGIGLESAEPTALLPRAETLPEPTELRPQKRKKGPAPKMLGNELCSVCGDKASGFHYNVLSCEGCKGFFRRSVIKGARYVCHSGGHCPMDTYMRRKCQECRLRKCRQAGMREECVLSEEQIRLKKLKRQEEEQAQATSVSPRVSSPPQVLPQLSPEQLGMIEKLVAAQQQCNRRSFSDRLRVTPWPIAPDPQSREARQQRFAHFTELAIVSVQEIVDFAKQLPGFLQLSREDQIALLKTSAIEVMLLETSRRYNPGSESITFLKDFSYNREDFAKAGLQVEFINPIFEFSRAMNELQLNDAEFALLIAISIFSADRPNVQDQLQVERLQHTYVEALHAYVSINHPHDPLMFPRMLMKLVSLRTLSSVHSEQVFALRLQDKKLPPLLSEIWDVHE

[6] = target: T5, Oxysterols receptor LXR-beta (Mus musculus, UniProt Q60644); assay: Agonist activity at mouse LXRbeta expressed in HEK293 cells co-expressing CMX-beta-galactosidase incubated for 16 hrs by luciferase reporter gene assay; type: cell-based
T5 sequence (Q60644 whole entry): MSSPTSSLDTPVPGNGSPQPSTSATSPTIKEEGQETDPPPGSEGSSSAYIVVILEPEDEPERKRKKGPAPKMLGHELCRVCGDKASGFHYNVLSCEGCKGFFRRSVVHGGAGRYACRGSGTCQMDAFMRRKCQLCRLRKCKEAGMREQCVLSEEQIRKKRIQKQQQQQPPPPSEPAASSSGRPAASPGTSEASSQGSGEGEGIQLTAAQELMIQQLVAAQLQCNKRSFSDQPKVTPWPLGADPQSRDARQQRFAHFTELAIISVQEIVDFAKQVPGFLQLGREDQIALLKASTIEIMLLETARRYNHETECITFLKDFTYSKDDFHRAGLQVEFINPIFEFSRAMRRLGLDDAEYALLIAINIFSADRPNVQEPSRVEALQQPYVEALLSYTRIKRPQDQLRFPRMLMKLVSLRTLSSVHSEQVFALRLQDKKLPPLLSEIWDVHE

[7] = target: T6, Oxysterols receptor LXR-beta (Mus musculus) (UniProt Q60644); assay: Agonist activity at mouse LXRbeta expressed in HEK293 cells co-expressing CMX-beta-galactosidase incubated for 16 hrs by luciferase reporter gene assay relative to T0901317; type: cell-based
T6 sequence (whole entry): T5 sequence (Q60644 whole entry)

[8] = Aqueous solubility of the compound in EtOH: 1/15 M phosphate buffer at pH 7.4 1:1 by HPLC method; type: physicochemical
[9] = target: T1, Oxysterols receptor LXR-beta (Homo sapiens); assay: Agonist activity at LXRbeta in human THP1 cells assessed as increase in ABCA1 mRNA expression at 1 uM by real-time quantitative RT-PCR method; type: cell-based
[10] = target: T1, Oxysterols receptor LXR-beta (Homo sapiens); assay: Agonist activity at human LXRbeta expressed in HEK293 cells co-expressing CMX-beta-galactosidase incubated for 16 hrs at 30 uM by luciferase reporter gene assay relative to T0901317; type: cell-based

Row | Structure (SMILES) | Efficacy [1] [%] | EC50 [2] [µM] | Activity [3] | Activity [4] | Activity [5] | EC50 [6] [µM] | Efficacy [7] [%] | solubility [8] [ng/mL] | Activity [9] | Efficacy [10] [%]
1 | O=C1c2c(Cl)c(Cl)c(Cl)c(Cl)c2C(=O)N1c1ccccc1/C=C/c1cccnc1 | 141 | 4.96 | inactive | – | – | – | – | – | – | –
2 | O=C1c2c(Cl)c(Cl)c(Cl)c(Cl)c2C(=O)N1c1cccc2ccccc12 | – | – | inactive | inactive | – | – | – | – | – | –
3 | O=C1c2c(Cl)c(Cl)c(Cl)c(Cl)c2C(=O)N1c1ccccc1Oc1ccccc1 | 99 | 8.98 | inactive | – | inactive | – | – | – | – | –
4 | O=C1c2c(Cl)c(Cl)c(Cl)c(Cl)c2C(=O)N1c1ccccc1CCc1ccccc1 | 117 | 4.98 | inactive | – | – | – | – | – | – | –
5 | O=C1c2c(Cl)c(Cl)c(Cl)c(Cl)c2C(=O)N1c1ccccc1/C=C\c1ccccc1 | – | > 10 | inactive | – | – | – | – | – | – | 104
6 | O=C1c2c(Cl)c(Cl)c(Cl)c(Cl)c2C(=O)N1c1ccccc1Cc1ccccc1 | 109 | 8 | inactive | – | inactive | – | – | – | – | –
7 | O=C1c2c(Cl)c(Cl)c(Cl)c(Cl)c2C(=O)N1c1ccccc1/C=C/c1ccccn1 | 148 | 4.77 | inactive | – | – | – | – | – | – | –
8 | O=C1c2c(Cl)c(Cl)c(Cl)c(Cl)c2C(=O)N1c1ccccc1/C=C/c1ccncc1 | – | > 10 | inactive | – | – | – | – | – | – | 35

Other lines, results leading:

Row | Efficacy [1] [%] | EC50 [2] [µM] | Activity [3] | Activity [4] | Activity [5] | EC50 [6] [µM] | Efficacy [7] [%] | solubility [8] [ng/mL] | Activity [9] | Efficacy [10] [%] | Structure (SMILES)
9 | 167 | 4.67 | inactive | – | – | – | – | – | – | – | O=C1c2c(Cl)c(Cl)c(Cl)c(Cl)c2C(=O)N1c1ccccc1/C=C/c1ccco1
10 | 153 | 1.73 | inactive | – | – | – | – | – | – | – | O=C1c2c(Cl)c(Cl)c(Cl)c(Cl)c2C(=O)N1c1ccccc1-c1ccccc1
11 | 133 | 0.915 | inactive | – | inactive | 0.82 | 23 | – | – | – | O=C1c2c(Cl)c(Cl)c(Cl)c(Cl)c2C(=O)N1c1ccccc1/C=C/c1ccsc1
12 | 143 | 0.27 | inactive | – | inactive | 0.3 | 26 | 3.6 (≈ 7.77 nM) | Active | – | O=C1c2c(Cl)c(Cl)c(Cl)c(Cl)c2C(=O)N1c1ccccc1/C=C/c1ccccc1
13 | 151 | 3.61 | inactive | – | inactive | 2.93 | 22 | – | – | – | O=C1c2c(Cl)c(Cl)c(Cl)c(Cl)c2C(=O)N1c1ccccc1/C=C/c1nccs1
